According to ChEMBL document CHEMBL1201862, “PubChem BioAssay data set” (2004):
Calls of active or inactive are those of the source.

How the values were obtained:
Beta Lactamase = Beta Lactamase (Pseudomonas aeruginosa, UniProt Q932Y6); assay: BLA reporter interference, concentration series – BLA reporter cells, FRET fluorescence, artefact control for NOD2-RIPK2 interaction inhibitor project, dose response (AID 651552); format: functional, cell-based
[1] = Fluorescence-based cell-based high throughput dose response assay for inhibitors of the interaction of nucleotide-binding oligomerization domain containing 2 (NOD2) and the receptor-interacting serine-threonine kinase 2 (RIPK2).; format: functional; details: Homo sapiens
[2] = biological target: T1, Sphingosine 1-phosphate receptor 4 (Homo sapiens, UniProt O95977); assay: Late stage fluorescence dose response cell-based screening assay for antagonists of the Sphingosine 1-Phosphate Receptor 4 (S1P4). [Related pubchem assays: 1524 (Confirmation screen (S1P4 antagonists).), 1510 (Primary screen (S1P4 antagonists).), 1853 (Summary AID (S1P4 antagonists).), 1692 (Dose response screen (S1P4 antagonists).)]; format: functional
T1 sequence (O95977 whole entry): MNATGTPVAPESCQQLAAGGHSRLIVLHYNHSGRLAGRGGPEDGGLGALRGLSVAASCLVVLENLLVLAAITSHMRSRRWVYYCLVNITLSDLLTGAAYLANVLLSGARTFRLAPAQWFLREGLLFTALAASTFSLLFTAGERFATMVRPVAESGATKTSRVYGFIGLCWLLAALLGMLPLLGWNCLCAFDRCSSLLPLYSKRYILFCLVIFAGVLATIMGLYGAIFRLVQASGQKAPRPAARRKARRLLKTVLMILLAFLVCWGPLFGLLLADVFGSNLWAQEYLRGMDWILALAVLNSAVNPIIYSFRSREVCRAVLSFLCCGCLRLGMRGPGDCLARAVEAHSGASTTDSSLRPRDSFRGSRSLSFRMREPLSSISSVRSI

[3] = biological target: T2, High affinity choline transporter 1 (Homo sapiens, UniProt Q9GZV3); assay: human choline transporter blockers, potency – cell-based, 5-point CRC, membrane potential dye, dose response (AID 504840); format: functional
T2 sequence (Q9GZV3 whole entry): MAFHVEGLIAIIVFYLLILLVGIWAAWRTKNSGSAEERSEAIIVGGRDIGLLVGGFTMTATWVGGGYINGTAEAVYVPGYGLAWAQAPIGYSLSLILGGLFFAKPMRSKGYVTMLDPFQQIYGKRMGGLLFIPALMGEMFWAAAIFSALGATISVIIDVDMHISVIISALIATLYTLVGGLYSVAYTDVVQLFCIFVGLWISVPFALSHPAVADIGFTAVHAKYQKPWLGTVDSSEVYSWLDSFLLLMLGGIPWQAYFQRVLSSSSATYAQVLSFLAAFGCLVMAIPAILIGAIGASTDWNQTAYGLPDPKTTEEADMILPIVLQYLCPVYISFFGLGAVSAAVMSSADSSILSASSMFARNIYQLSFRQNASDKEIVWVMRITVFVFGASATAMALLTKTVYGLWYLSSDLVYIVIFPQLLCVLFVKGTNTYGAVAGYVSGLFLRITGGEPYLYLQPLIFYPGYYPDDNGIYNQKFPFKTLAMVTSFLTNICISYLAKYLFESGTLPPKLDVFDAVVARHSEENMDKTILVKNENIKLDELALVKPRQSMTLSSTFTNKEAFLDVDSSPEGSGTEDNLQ

Streptococcus = assay: GAS UMAA2166 growth inhibition – luminescence, BacTiterGlo, counter-screen for streptokinase expression inhibitor project, dose response (AID 1915); format: functional, organism-based;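 also: potency for reduction of bacterial viability or growth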
[4] = luciferase reporter signal suppression in cells – H4 neuroglioma cells, luminescence, dose response (AID 1990); format: functional, cell-based
[5] = biological target: T3, Tyrosyl-DNA phosphodiesterase 2 (Homo sapiens, UniProt O95551); assay: potency against TDP2 phosphodiesterase activity – biochemical, epi absorbance, IC50, dose response (AID 743297)
T3 sequence (O95551 whole entry): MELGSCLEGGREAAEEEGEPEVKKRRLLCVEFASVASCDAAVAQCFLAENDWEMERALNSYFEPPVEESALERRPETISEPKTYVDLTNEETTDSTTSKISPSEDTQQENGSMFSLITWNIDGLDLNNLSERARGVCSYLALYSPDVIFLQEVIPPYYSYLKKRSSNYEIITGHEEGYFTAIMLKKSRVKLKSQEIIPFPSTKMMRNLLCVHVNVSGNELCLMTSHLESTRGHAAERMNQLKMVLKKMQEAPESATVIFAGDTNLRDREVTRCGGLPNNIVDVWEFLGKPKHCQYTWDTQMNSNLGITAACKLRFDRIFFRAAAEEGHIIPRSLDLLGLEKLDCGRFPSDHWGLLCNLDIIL

[6] = blockers of HIV-1 ZM109 envelope-driven cell-cell fusion – HeLa effector, CEM target cells, luciferase, cherry-pick, dose response (AID 652058); format: functional, cell-based;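 also: luciferase signal from HIV-1 Env mediated cell-cell fusion of effector and target cells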
[7] = biological target: Mitogen-activated protein kinase kinase kinase kinase 2 (Homo sapiens, UniProt Q12851); format: functional;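 also: measured as one member of a kinome-wide kinase panel, with MAP4K2 as the panel entry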
[8] = biological target: Mitogen-activated protein kinase 8 (Homo sapiens, UniProt P45983); format: functional;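 also: value comes from one member of a kinome-wide kinase profiling panel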
[9] = biological target: Mitogen-activated protein kinase 10 (Homo sapiens, UniProt P53779); assay: Navigating the Kinome. Panel member name: MAPK10; format: functional
[10] = biological target: Glycogen synthase kinase-3 beta (Homo sapiens, UniProt P49841); format: functional;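 also: value comes from a broad kinome profiling panel, with GSK3B as the panel member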
Beta-galactosidase = Beta-galactosidase (Escherichia coli, UniProt Q8VNN2); assay: detection-enzyme interference by beta-gal modulators – biochemical, E. coli enzyme, set 3, artefact control for CCR6 antagonist project, dose response (AID 504712); format: functional
[11] = biological target: T4, Mannose-6-phosphate isomerase (Homo sapiens, UniProt P34949); assay: MPI inhibition at elevated mannose 6-phosphate – biochemical, fluorescence intensity, high mannose 6-phosphate, primary screen (AID 1220)
T4 sequence (P34949 whole entry): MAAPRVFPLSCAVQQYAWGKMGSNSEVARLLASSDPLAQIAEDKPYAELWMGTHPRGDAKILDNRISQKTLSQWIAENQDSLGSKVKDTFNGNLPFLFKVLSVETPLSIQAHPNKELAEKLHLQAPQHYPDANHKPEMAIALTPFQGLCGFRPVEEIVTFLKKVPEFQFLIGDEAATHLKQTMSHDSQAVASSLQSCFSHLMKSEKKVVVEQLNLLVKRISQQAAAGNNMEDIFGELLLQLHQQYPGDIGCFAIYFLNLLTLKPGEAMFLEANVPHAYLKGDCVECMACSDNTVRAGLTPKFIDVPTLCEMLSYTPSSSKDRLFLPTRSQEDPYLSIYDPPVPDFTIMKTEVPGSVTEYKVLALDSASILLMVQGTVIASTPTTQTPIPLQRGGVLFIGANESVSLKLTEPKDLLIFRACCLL

[12] = biological target: Casein kinase I isoform delta (Homo sapiens, UniProt P48730); format: functional;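 also: measured as one member (CSNK1D) of a kinome panel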
Focal adhesion kinase 1 = Focal adhesion kinase 1 (Homo sapiens, UniProt Q05397); format: functional;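 also: measured as one member of a kinome panel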
[13] = biological target: Calcium/calmodulin-dependent protein kinase type II subunit alpha (Homo sapiens, UniProt Q9UQM7); assay: Navigating the Kinome. Panel member name: CAMK2A; format: functional
Chain of Calcium/calmodulin-dependent protein kinase type II subunit alpha (Q9UQM7 whole entry): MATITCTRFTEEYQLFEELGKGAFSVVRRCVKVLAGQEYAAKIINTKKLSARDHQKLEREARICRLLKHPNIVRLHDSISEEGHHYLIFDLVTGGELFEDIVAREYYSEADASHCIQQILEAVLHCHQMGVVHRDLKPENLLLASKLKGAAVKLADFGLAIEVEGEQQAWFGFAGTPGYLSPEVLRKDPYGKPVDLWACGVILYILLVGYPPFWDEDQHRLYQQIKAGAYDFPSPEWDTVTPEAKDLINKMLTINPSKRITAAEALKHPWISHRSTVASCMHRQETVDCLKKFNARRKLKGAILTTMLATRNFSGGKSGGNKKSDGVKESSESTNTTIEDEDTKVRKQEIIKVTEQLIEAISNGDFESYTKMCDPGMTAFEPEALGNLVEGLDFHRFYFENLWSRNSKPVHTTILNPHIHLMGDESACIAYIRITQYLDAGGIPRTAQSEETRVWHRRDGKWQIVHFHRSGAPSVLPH

Chain of Glycogen synthase kinase-3 beta (P49841 whole entry): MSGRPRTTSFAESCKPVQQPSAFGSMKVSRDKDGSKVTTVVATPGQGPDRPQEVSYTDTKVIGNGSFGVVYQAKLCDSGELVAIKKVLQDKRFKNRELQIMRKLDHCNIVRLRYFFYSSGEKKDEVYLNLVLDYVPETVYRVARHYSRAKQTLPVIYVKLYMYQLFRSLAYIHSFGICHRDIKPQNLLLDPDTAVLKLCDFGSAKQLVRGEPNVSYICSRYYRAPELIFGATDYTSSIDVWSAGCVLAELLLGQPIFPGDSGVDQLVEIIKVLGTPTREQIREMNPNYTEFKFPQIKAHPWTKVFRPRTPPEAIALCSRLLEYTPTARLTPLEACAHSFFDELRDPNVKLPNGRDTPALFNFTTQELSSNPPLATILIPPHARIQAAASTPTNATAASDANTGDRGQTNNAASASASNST
Chain of Focal adhesion kinase 1 (Q05397 whole entry): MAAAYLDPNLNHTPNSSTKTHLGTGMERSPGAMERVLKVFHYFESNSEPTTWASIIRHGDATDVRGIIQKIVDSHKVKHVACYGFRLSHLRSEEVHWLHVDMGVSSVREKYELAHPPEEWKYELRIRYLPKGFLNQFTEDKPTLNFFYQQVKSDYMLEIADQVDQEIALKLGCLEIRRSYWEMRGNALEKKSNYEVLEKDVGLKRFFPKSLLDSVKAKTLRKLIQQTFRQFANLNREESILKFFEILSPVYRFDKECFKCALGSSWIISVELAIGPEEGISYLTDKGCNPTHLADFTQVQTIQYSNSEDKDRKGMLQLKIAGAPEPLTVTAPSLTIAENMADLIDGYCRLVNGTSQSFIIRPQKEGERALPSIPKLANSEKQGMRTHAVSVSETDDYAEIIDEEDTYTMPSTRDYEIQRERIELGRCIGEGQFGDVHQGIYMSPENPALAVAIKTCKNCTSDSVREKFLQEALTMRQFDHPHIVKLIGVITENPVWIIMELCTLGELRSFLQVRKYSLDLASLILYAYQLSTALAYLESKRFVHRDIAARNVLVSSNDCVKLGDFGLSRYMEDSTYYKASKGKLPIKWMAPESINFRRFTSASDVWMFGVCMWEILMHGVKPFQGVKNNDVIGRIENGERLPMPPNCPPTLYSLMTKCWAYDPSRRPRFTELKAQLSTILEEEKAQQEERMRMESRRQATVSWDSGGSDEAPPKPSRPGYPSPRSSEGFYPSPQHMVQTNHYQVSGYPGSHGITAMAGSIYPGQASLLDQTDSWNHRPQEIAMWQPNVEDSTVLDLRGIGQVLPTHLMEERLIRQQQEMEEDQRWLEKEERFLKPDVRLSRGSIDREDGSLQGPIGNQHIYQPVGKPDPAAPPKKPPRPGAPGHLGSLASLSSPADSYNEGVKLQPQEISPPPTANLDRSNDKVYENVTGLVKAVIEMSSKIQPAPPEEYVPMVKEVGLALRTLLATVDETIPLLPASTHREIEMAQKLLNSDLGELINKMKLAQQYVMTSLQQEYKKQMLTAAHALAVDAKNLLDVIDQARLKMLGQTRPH
Chain of Beta Lactamase (Q932Y6 whole entry, the tested form may be a part): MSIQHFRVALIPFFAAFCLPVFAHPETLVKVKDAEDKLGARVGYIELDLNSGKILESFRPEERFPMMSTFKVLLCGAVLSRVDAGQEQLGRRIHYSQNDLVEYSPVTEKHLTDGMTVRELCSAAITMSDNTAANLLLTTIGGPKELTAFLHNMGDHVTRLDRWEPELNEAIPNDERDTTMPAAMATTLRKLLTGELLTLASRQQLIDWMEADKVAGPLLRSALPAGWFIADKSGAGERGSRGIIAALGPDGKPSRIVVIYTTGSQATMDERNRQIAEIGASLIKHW
Chain of Mitogen-activated protein kinase kinase kinase kinase 2 (Q12851 whole entry): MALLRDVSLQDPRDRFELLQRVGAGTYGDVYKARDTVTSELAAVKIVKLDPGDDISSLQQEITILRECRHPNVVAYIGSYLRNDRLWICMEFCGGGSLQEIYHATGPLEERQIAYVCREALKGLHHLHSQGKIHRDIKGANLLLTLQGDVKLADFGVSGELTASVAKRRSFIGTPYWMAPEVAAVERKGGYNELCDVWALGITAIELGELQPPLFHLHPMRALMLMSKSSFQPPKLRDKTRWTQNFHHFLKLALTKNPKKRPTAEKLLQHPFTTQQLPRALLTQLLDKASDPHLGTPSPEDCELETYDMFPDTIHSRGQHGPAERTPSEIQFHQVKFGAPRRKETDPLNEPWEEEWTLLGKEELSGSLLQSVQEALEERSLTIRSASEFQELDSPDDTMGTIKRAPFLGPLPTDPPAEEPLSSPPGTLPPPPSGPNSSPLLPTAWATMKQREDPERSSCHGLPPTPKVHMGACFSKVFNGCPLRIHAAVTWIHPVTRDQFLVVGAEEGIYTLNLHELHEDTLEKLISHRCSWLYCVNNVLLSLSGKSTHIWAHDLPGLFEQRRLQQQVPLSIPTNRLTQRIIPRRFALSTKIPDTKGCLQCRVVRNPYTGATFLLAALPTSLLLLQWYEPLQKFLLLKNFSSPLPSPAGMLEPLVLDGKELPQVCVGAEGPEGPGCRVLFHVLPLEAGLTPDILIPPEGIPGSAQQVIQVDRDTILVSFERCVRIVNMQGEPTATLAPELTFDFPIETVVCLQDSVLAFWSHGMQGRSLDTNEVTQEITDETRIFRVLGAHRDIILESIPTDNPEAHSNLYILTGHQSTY
Chain of Casein kinase I isoform delta (P48730 whole entry, canonical isoform): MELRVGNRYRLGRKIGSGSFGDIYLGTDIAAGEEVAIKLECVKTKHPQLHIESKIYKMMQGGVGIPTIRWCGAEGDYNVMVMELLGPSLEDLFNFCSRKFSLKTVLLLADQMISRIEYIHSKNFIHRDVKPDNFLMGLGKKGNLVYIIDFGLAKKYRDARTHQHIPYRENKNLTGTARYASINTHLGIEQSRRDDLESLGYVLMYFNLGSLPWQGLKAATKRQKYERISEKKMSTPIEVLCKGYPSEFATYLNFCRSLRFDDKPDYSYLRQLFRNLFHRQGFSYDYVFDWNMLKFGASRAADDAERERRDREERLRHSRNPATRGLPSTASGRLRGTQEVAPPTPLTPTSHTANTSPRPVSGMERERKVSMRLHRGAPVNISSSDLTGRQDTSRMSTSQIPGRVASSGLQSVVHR
Chain of Beta-galactosidase (Q8VNN2 whole entry): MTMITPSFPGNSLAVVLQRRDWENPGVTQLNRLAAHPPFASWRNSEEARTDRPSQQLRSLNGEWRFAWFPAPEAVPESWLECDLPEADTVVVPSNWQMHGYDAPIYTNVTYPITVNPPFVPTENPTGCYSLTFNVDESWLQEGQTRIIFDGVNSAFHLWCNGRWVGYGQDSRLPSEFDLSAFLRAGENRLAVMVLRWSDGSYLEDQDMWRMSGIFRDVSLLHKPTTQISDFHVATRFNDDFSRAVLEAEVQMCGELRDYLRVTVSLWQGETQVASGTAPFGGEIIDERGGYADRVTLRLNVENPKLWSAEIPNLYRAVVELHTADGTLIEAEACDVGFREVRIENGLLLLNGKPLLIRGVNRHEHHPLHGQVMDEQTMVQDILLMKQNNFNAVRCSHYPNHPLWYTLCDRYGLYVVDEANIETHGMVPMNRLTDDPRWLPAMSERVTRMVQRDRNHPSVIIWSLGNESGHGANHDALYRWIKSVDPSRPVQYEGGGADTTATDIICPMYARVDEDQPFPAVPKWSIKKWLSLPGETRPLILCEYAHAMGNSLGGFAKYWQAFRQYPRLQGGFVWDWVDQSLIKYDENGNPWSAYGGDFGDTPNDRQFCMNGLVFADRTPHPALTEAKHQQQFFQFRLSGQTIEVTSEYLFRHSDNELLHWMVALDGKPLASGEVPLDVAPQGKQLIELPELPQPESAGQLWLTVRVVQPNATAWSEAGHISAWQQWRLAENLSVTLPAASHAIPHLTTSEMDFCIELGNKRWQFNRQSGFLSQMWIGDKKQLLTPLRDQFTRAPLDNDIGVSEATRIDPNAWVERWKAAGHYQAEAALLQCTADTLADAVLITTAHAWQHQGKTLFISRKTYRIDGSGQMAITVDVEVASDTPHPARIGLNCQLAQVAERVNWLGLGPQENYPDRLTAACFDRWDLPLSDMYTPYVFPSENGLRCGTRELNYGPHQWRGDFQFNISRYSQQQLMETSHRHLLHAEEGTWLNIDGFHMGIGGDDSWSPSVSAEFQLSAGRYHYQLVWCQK
Chain of Mitogen-activated protein kinase 10 (P53779 whole entry): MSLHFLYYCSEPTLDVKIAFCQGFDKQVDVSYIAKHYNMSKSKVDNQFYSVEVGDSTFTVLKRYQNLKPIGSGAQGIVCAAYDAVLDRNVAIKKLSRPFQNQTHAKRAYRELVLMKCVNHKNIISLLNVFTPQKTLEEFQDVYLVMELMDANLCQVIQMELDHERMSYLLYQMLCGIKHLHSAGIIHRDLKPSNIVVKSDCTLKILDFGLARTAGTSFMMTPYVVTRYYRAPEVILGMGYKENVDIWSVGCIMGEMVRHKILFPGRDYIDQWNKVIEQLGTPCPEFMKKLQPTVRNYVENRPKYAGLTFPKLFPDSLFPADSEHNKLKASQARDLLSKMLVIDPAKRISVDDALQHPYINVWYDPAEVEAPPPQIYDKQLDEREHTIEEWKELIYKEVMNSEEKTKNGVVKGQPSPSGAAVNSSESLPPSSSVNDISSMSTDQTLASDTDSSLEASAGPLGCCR

For `COC(=O)CCS(=O)(=O)c1nc(-c2ccccc2)cc(C(F)(F)F)n1`, the IC50 (Beta Lactamase) was 16.4 µM (inactive), the IC50 [1] was 3.08 µM (active) and the IC50 [2] was 3.45 µM (not active).
With `O=C(O)c1ccc(NC2=C(Cl)C(=O)c3ccccc3C2=O)cc1` the IC50 [3] was 14.5 µM (active).
With `O=C(O)c1ccc2c3c(ncnc13)-c1ccccc1C2=O` the EC50 (Streptococcus) was > 150 µM (not active) and the EC50 [4] was 2.48 µM (active).
In the case of `CCOC(=O)c1c2c(n(Cc3ccccc3)c1C)C(=O)C(=O)c1ccccc1-2`, the IC50 [5] was 4.78 µM (active) and the AC50 [6] was 10.9 µM (active).
With `Cc1ccc2nccc(NC(=O)Nc3cccc(C(F)(F)F)n3)c2c1` the Ki [7] was > 6.31 µM (inactive), the Ki [8] was > 3.16 µM (inactive) and the Ki [9] was > 3.16 µM (inactive).
For `Cc1nn(C)c2sc3c(=O)[nH]cnc3c12`, the Ki [10] was 39.8 µM (active).
With `Cc1c(/N=C2\C=CC(=O)c3ccccc32)c(=O)n(-c2ccccc2)n1C` the IC50 (Beta-galactosidase) was > 66.6 µM (inactive) and the IC50 [11] was 46.4 µM (active).
In the case of `COc1cc2c(cc1F)C(c1ccccc1Cl)=Nc1c(n[nH]c1C)N2` [RG-1530], the Ki [12] was > 7.94 µM (inactive), the Ki (Focal adhesion kinase 1) was 0.0126 µM (active) and the Ki [13] was > 6.31 µM (inactive).
